Results published in patent EP0429372A1, “2-Azolyl nicotinate derivatives as herbicides” (RHONE-POULENC AGROCHIMIE, priority 1989, dated 1991).

Tests used:
[1] = system: mauvaises herbes; assay: Procedure 2 d): weed control, pre-emergence; type: in vivo; conditions: 4000 g/ha (procédé 2D), visual rating 20 to 24 days after spraying, vs control pots
Excerpt: (§1) Des quantités appropriées des composés d'essai ont été dissoutes dans de l'acétone pour obtenir des solutions équivalant à des taux d'application de 250, 1000 ou 4000 g de composé d'essai par hectare (g/ha).
Les graines ont été semées dans des pots en matière plastique de 70 mm de côté et 75 mm de profondeur, dans de la terre non stérile provenant de Boarded Barns Farm ou un type de terre similaire provenant d'une source convenable. Les quantités de graines par pot étaient les suivantes :
Les composés de la présente invention ont été appliqués à la surface du sol, contenant les semences, de la manière décrite dans le paragraphe (a). Un seul pot de chaque plante cultivée et de chaque mauvaise herbe a été attribué à chaque traitement, en association avec des témoins n'ayant pas subi de pulvérisation et des témoins ayant subi une pulvérisation avec de l'acétone seule. Après traitement, les pots ont été maintenus dans une serre et ont été arrosés par aspersion pendant 3 jours, puis par une sous- irrigation controlée. L'évaluation visuelle des dégats infligés aux plantes cultivées a été effectuée 20 à 24 jours après pulvérisation. Les résultats ont été exprimés en pourcentage de réduction de croissance ou d'endommagement des plantes cultivées ou des mauvaises herbes, comparativement aux plantes présentes dans les pots témoins.

[2] = system: mauvaises herbes; type: in vivo; conditions: post-emergence, 4000 g/ha
Excerpt: as §1
Les mauvaises herbes et les plantes cultivées ont été semées directement dans du compost de mise en pot John Innes dans des pots de 75 mm de profondeur et 70 mm de côté, sauf en ce qui concerne l'espèce du genre Amaranthus qui a été repiquée au stade de jeunes plants de semis et transférée dans les pots une semaine avant plulvérisation. Puis les plantes ont été cultivées dans la serre jusqu'à ce qu'elles soient prêtres à subir une pulvérisation avec les composés d'essai. Le nombre de plantes par pot étaient les suivants :
Les composés d'essai ont été appliqués aux plantes de la manière décrite dans le paragraphe (a). Un seul pot de chaque espèce de plante cultivée et de chaque espèce de mauvaise herbe a été attribué à chaque traitement, en association avec des témoins n'ayant pas subi de pulvérisation et des témoins ayant subi une pulvérisation avec de l'acétone seule.
Après traitement, les pots ont été maintenus dans une serre et ont été arrosés une fois par aspersion au bout de 24 heures, puis par sous - irrigation contrôlée. L'évaluation visuelle des dégâts infligés aux plantes cultivées et de la destruction des mauvaises herbes a été effectué 20 à 24 jours après pulvérisation. Les résultats ont été exprimés en pourcentage de réduction de croissance ou d'endommagement des plantes cultivées ou des mauvaises herbes, comparativement aux plantes présentes dans les pots témoins.

## COc1cccc2c1nc(-c1ncccc1C(=O)O)n2S(=O)(=O)N(C)C [compound 90]
[1]
  réduction de la croissance d'une ou plusieurs des espèces de mauvaises herbes: ≥ 90%
[2]
  destruction d'une ou plusieurs des espèces de mauvaises herbes: ≥ 90%

## Cc1ccc2c(nc(-c3ncccc3C(=O)O)n2S(=O)(=O)N(C)C)c1C [compound 91]
[1]
  réduction de la croissance d'une ou plusieurs des espèces de mauvaises herbes: ≥ 90%
[2]
  destruction d'une ou plusieurs des espèces de mauvaises herbes: ≥ 90%

## Cc1ccc(C(=O)O)c(-c2nc3ccccc3n2S(=O)(=O)N(C)C)n1 [compound 93]
[1]
  réduction de la croissance d'une ou plusieurs des espèces de mauvaises herbes: ≥ 90%
[2]
  destruction d'une ou plusieurs des espèces de mauvaises herbes: ≥ 90%

## C#CCOC(=O)c1cccnc1-c1nc2ccccc2n1S(=O)(=O)N(C)C [compound 99]
[1]
  réduction de la croissance d'une ou plusieurs des espèces de mauvaises herbes: ≥ 90%
[2]
  destruction d'une ou plusieurs des espèces de mauvaises herbes: ≥ 90%

## CCCCCCOC(=O)c1cccnc1-c1nc2ccccc2n1S(=O)(=O)N(C)C [compound 103]
[1]
  réduction de la croissance d'une ou plusieurs des espèces de mauvaises herbes: ≥ 90%
[2]
  destruction d'une ou plusieurs des espèces de mauvaises herbes: ≥ 90%
